Key:
Septoria tritici = assay: Test G: wheat leaf blotch, preventive spray on wheat seedlings, visual disease rating; conditions: for pest or weed control at 200 µg/mL: Zymoseptoria tritici, in Triticum aestivum, 504 h, read-out: Test G rating (% disease control)
Botrytis cinerea = assay: Test B: tomato Botrytis, preventive spray on tomato seedlings, visual disease rating; conditions: for pest or weed control at 200 µg/mL: Botrytis cinerea, in Solanum lycopersicum, 120 h, read-out: Test B rating (% disease control)
Excerpt: (§1) General protocol for preparing test suspensions for Tests A-J: the test compounds were first dissolved in acetone in an amount equal to 3% of the final volume and then suspended at the desired concentration (in ppm) in acetone and purified water (50/50 mix by volume) containing 250 ppm of the surfactant Trem® 014 (polyhydric alcohol esters). The resulting test suspensions were then used in Tests A-J. Spraying a 200 ppm test suspension to the point of run-off on the test plants was the equivalent of a rate of 500 g/ha. Unless otherwise indicated, the rating values indicate a 200 ppm test suspension was used. (An asterisk “*” next to the rating value indicates a 40 ppm test suspension was used.)
The test suspension was sprayed to the point of run-off on tomato seedlings. The following day the seedlings were inoculated with a spore suspension of Botrytis cinerea (the causal agent of tomato Botrytis) and incubated in saturated atmosphere at 20° C. for 48 h, and then moved to a growth chamber at 24° C. for 3 additional days, after which time visual disease ratings were made.

[1] = system: Puccinia recondita f. sp. tritici; assay: Test I: wheat leaf rust, preventive spray on wheat seedlings, visual disease rating; conditions: for pest or weed control at 200 µg/mL: 192 h, read-out: Test I rating (% disease control)
Septoria nodorum = assay: Test F: Septoria glume blotch, preventive spray on wheat seedlings, visual disease rating; conditions: for pest or weed control at 200 µg/mL: Parastagonospora nodorum, in Triticum aestivum, 192 h, read-out: Test F rating (% disease control)
Excerpt: as §1
The test suspension was sprayed to the point of run-off on wheat seedlings. The following day the seedlings were inoculated with a spore suspension of Septoria nodorum (the causal agent of Septoria glume blotch) and incubated in a saturated atmosphere at 24° C. for 48 h, and then moved to a growth chamber at 20° C. for 6 days, after which time visual disease ratings were made.

[2] = system: Puccinia recondita f. sp. tritici; assay: Test H: wheat leaf rust, curative spray on inoculated wheat seedlings, visual disease rating; conditions: for pest or weed control at 200 µg/mL: 144 h, read-out: Test H rating (% disease control)
[3] = system: Erysiphe graminis f sp. tritici; assay: Test J: wheat powdery mildew, preventive spray on wheat seedlings, visual disease rating; conditions: Blumeria graminis, in Triticum aestivum, 192 h, read-out: Test J rating (% disease control)
Alternaria solani = assay: Test C: tomato early blight, preventive spray on tomato seedlings, visual disease rating; conditions: for pest or weed control at 200 µg/mL: Alternaria solani, in Solanum lycopersicum, 168 h, read-out: Test C rating (% disease control)

Structure (SMILES)	pest or weed control at 200 µg/mL (Septoria tritici)	pest or weed control at 200 µg/mL (Botrytis cinerea)	pest or weed control at 200 µg/mL [1]	pest or weed control at 200 µg/mL (Septoria nodorum)	pest or weed control at 200 µg/mL [2]	pest or weed control at 200 µg/mL [3]	pest or weed control at 200 µg/mL (Alternaria solani)	Test G rating (% disease control) (Septoria tritici; wheat leaf blotch, 100 = 100% disease control, 0 = no control relative to controls)	Test B rating (% disease control) (Botrytis cinerea; tomato Botrytis, 100 = 100% disease control, 0 = no control relative to controls)	Test I rating (% disease control) ([1]; wheat leaf rust, preventive, 100 = 100% disease control, 0 = no control relative to controls)	Test F rating (% disease control) (Septoria nodorum; Septoria glume blotch, 100 = 100% disease control, 0 = no control relative to controls)	Test H rating (% disease control) ([2]; wheat leaf rust, curative, 100 = 100% disease control, 0 = no control relative to controls)	Test C rating (% disease control) (Alternaria solani; tomato early blight, 100 = 100% disease control, 0 = no control relative to controls)	Test G disease control rating (Septoria tritici; wheat leaf blotch, sprayed the day before inoculation, 100 = 100% disease control, 0 = no disease control relative to controls)	Test B disease control rating (Botrytis cinerea; tomato Botrytis, 100 = 100% disease control, 0 = no disease control relative to controls)	Test I disease control rating ([1]; wheat leaf rust, sprayed the day before inoculation, 100 = 100% disease control, 0 = no disease control relative to controls)	Test F disease control rating (Septoria nodorum; Septoria glume blotch on wheat, 100 = 100% disease control, 0 = no disease control relative to controls)	Test H disease control rating ([2]; wheat leaf rust, sprayed after inoculation, 100 = 100% disease control, 0 = no disease control relative to controls)	Test C disease control rating (Alternaria solani; tomato early blight, 100 = 100% disease control, 0 = no disease control relative to controls)
COc1cc(F)c(Nc2c(-c3ccc(F)cc3Cl)c(C)nn2C)c(F)c1 [Compound 17, 4-(2-Chloro-4-fluorophenyl)-N-(2,6-difluoro-4-methoxyphenyl)-1,3-dimethyl-1H-pyrazol-5-amine]	97%	100%	100%	93%	96%	100%	100%	–	–	–	–	–	–	–	–	–	–	–	–
Cc1nn(C)c(Nc2c(F)cc(F)cc2F)c1-c1ccc(F)cc1Cl [Compound 18, 4-(2-chloro-4-fluorophenyl)-1,3-dimethyl-N-(2,4,6-trifluorophenyl)-1H-pyrazol-5-amine]	95%	99%	100%	99%	99%	100%	100%	–	–	–	–	–	–	–	–	–	–	–	–
COc1cc(F)c(-c2c(C)nn(C)c2Nc2ccc(Cl)cc2)c(F)c1 [Compound 22, N-(4-chlorophenyl)-4-(2,6-difluoro-4-methoxyphenyl)-1,3-dimethyl-1H-pyrazol-5-amine]	94%	90%	94%	90%	9%	100%	85%	–	–	–	–	–	–	–	–	–	–	–	–
COc1cc(F)c(-c2c(C)nn(C)c2Nc2ccc(F)cc2F)c(F)c1 [Compound 23, 4-(2,6-difluoro-4-methoxyphenyl)-N-(2,4-difluorophenyl)-1,3-dimethyl-1H-pyrazol-5-amine]	93%	98%	100%	99%	92%	100%	100%	–	–	–	–	–	–	–	–	–	–	–	–
COc1cc(F)c(-c2c(C)nn(C)c2Nc2c(F)cc(F)cc2F)c(F)c1 [Compound 24, 4-(2,6-difluoro-4-methoxyphenyl)-1,3-dimethyl-N-(2,4,6-trifluorophenyl)-1H-pyrazol-5-amine]	94%	98%	97%	0%	9%	100%	100%	–	–	–	–	–	–	–	–	–	–	–	–
COc1cc(F)c(Nc2c(-c3ccc(F)c(F)c3)c(C)nn2C)c(F)c1 [Compound 36, N-(2,6-difluoro-4-methoxyphenyl)-4-(3,4-difluorophenyl)-1,3-dimethyl-1H-pyrazol-5-amine]	96%	100%	96%	0%	0%	98%	0%	–	–	–	–	–	–	–	–	–	–	–	–
Cc1nn(C)c(Nc2c(F)cc(F)cc2F)c1-c1ccc(F)cc1F [Compound 41, 4-(2,4-difluorophenyl)-1,3-dimethyl-N-(2,4,6-trifluorophenyl)-1H-pyrazol-5-amine]	94%	100%	100%	90%	0%	99%	99%	–	–	–	–	–	–	–	–	–	–	–	–
Cc1nn(C)c(Oc2c(F)cc(C#N)cc2F)c1-c1ccc(F)cc1Cl [Compound 45, 4-[[4-(2-chloro-4-fluorophenyl)-1,3-dimethyl-1H-pyrazol-5-yl]oxy]-3,5-difluorobenzonitrile]	100%	100%	100%	100%	7%	100%	100%	–	–	–	–	–	–	–	–	–	–	–	–
Cc1nn(C)c(Oc2c(F)cc([N+](=O)[O-])cc2F)c1-c1c(F)cc(F)cc1F [Compound 54, 5-(2,6-Difluoro-4-nitrophenoxy)-1,3-dimethyl-4-(2,4,6-trifluorophenyl)-1H-pyrazole]	41%	96%	95%	0%	0%	95%	0%	–	–	–	–	–	–	–	–	–	–	–	–
COc1cc(F)c(-c2c(C)nn(C)c2Oc2c(F)cc(Cl)cc2F)c(F)c1 [Compound 58, 5-(4-Chloro-2,6-difluorophenoxy)-4-(2,6-difluoro-4-methoxyphenyl)-1,3-dimethyl-1H-pyrazole]	98%	98%	100%	89%	82%	100%	100%	–	–	–	–	–	–	–	–	–	–	–	–
Cc1nn(C)c(Nc2ccc(F)cc2F)c1-c1ccc(Cl)cc1Cl [Compound 69, 4-(2,4-Dichlorophenyl)-N-(2,4-difluorophenyl)-1,3-dimethyl-1H-pyrazol-5-amine]	99%	100%	99%	60%	91%	100%	73%	–	–	–	–	–	–	–	–	–	–	–	–
COc1cc(F)c(-c2c(C)nn(C)c2Nc2ccc(F)cc2Cl)c(F)c1 [Compound 87, N-(2-chloro-4-fluorophenyl)-4-(2,6-difluoro-4-methoxyphenyl)-1,3-dimethyl-1H-pyrazol-5-amine]	98%	100%	99%	95%	85%	100%	100%	–	–	–	–	–	–	–	–	–	–	–	–
Cc1nn(C)c(Nc2c(F)cc(C#N)cc2F)c1-c1ccc(F)cc1Cl [Compound 91, 4-[[4-(2-chloro-4-fluorophenyl)-1,3-dimethyl-1H-pyrazol-5-yl]amino]-3,5-difluorobenzonitrile]	99%	100%	100%	95%	0%	100%	99%	–	–	–	–	–	–	–	–	–	–	–	–
Cc1nn(C)c(Oc2ccc(C#N)cc2F)c1-c1ccc(F)cc1Cl [Compound 118, 4-[[4-(2-chloro-4-fluorophenyl)-1,3-dimethyl-1H-pyrazol-5-yl]oxy]-3-fluorobenzonitrile]	100%	100%	100%	98%	99%	99%	100%	–	–	–	–	–	–	–	–	–	–	–	–
Cc1nn(C)c(Oc2ccc(C#N)cc2Cl)c1-c1ccc(F)cc1Cl [Compound 139, 3-chloro-4-[[4-(2-chloro-4-fluorophenyl)-1,3-dimethyl-1H-pyrazol-5-yl]oxy]benzonitrile]	100%	100%	99%	100%	69%	100%	86%	–	–	–	–	–	–	–	–	–	–	–	–
Cc1nn(C)c(Oc2cc(F)c(C#N)cc2F)c1-c1ccc(F)cc1Cl [Compound 148, 4-[[4-(2-chloro-4-fluorophenyl)-1,3-dimethyl-1H-pyrazol-5-yl]oxy]-2,5-difluorobenzonitrile]	100%	99%	100%	100%	61%	99%	99%	–	–	–	–	–	–	–	–	–	–	–	–
COc1cc(Cl)c(Nc2c(-c3ccc(F)cc3Cl)c(C)nn2C)c(Cl)c1 [compound 296]	–	–	–	–	–	–	–	100%	99%	99%	0%	0%	0%	–	–	–	–	–	–
COc1cc(Cl)c(Nc2c(-c3ccc(F)cc3Br)c(C)nn2C)c(Cl)c1 [compound 323]	–	–	–	–	–	–	–	–	–	–	–	–	–	98%	98%	94%	0%	0%	0%
